Measurements: patent publication US20060269907A1, “Decontamination of biological fluids using diphenylpyrilium compounds” (priority 2003, published 2006)
Where two headings read alike, the source gives them in different places.

Columns and labels:
red blood cells = conditions: cited from earlier work
RBCs [1] = experiment: Spectroscopic assay of TP binding to RBCs; conditions: 200 μM DP; 160 μM TP; 20-percent hct RBCs in Erythrosol
extracellular DHBV = experiment: Photoinactivation of extracellular DHBV in RBC suspensions; format: cell-based; conditions: 10 μM TP; 200 μM DP; 20-percent hct RBCs in Erythrosol; 1.1 J/cm^2 light
S. aureus = experiment: Bacterial photoinactivation in red cell suspensions; format: cell-based
red cells [2] = conditions: n=10
red cells [3] = test system: red cells
intracellular HIV = experiment: Photoinactivation of intracellular HIV in RBC suspensions; format: cell-based, HIV-1; conditions: 80 μM TP; 200 μM DP; 20-percent hct RBCs in Erythrosol; 1.1 J/cm^2 light
extracellular VSV = format: cell-based, Vesicular Stomatitis Virus
S. marcescens = format: cell-based
extracellular HIV = experiment: Photoinactivation of extracellular HIV in RBC suspensions; format: cell-based, HIV-1; conditions: 80 μM TP; 200 μM DP; 20-percent hct RBCs in Erythrosol; 1.1 J/cm^2 light
RBCs [4] = conditions: n = 4
Y. enterocolitica = experiment: Bacterial photoinactivation in red cell suspensions; format: cell-based
P. fluorescens = format: cell-based
all tested viruses = format: cell-based
S. epidermidis = format: cell-based
extracellular BVDV = format: cell-based
S. liquefaciens = format: cell-based
E. coli = experiment: Bacterial photoinactivation in red cell suspensions; format: cell-based
[5] = test system: gram positive and gram negative organisms; format: cell-based
extracellular PRV = format: cell-based, Pseudorabies virus
D. radiodurans = experiment: Bacterial photoinactivation in red cell suspensions; format: cell-based; conditions: 160 μM compound 2; RBCs 20% hematocrit in Erythrosol; 2 min 8.9 mW/cm^2 red light
intracellular VSV = format: cell-based, Vesicular Stomatitis Virus
[6] = 100 μM TP, 200 μM DP and 1.1 J/cm^2 red light, 20% hct RBCs in Erythrosol, n = 4
[7] = 160 μM compound 2, RBCs 20% hematocrit in Erythrosol, 2 min 8.9 mW/cm^2 red light

SMILES: Cc1cc(=[N+](C)C)cc2sc3cc(N(C)C)cc(C)c3nc1-2.[Cl-] [dimethylmethylene blue]
- hemolysis (red blood cells; dye and light, after 6 week refrigerated storage in ADSOL): roughly 25%
- hemolysis (red blood cells; following 6 weeks of 1-6° C. storage in Erythrosol): about 2%
- hemolysis (red blood cells; six weeks of 1-6° C. storage in Erythrosol, RBCs pre-incubated with quinacrine): approximately 1.2%

SMILES: OCCN(CCO)c1nc(N2CCCCC2)c2nc(N(CCO)CCO)nc(N3CCCCC3)c2n1 [dipyridamole, reference compound]
- TP binding sites in RBCs blocked by DP (RBCs [1]): approximately 36%

SMILES: Cc1cc(-c2ccc(N(C)C)cc2)cc(-c2ccc(N(C)C)cc2)[s+]1.[I-] [Compound 2, 2′,4′-bis(4-N,N-dimethylaminophenyl) 6′-methylthiopyrilium iodide]
- log10 inactivation of extracellular DHBV (extracellular DHBV): > 5.8 log10
- log10 inactivation (S. aureus; [6]): >6.3 log10
- potassium in the supernatant (red cells [2]): 16.6 ± 4.2 mM
- potassium released to the supernatant (red cells [2]): 38.4 ± 4.4 mM
- hemolysis following 42 day 1-6° C. storage (red cells [3]; n=10): 0.29%
- log10 inactivation of intracellular HIV (intracellular HIV): 6.2±0.1 log10
- log10 inactivation of extracellular VSV (extracellular VSV): > 8.4 log10
- log10 inactivation (S. marcescens; n = 4): 6.2 ± 1.0 log10
- log10 inactivation of extracellular HIV (extracellular HIV): > 7.5 log10
- ATP level (RBCs [4]): 2.63±0.07 μmole/g Hb
- morphology score (RBCs [4]): 94.5±1.5
- log10 inactivation (Y. enterocolitica; [6]): 5.9 ± 0.6 log10
- log10 inactivation (P. fluorescens; n = 4): 5.4 ± 1.0 log10
- inactivation of all tested viruses (all tested viruses): inactivated to the limit of assay detection
- log10 inactivation (S. epidermidis; n = 4): >7.6 log10
- log10 inactivation of extracellular BVDV (extracellular BVDV): > 6 log10
- log10 inactivation (S. liquefaciens; n = 4): >7.1 log10
- log10 inactivation (E. coli; [6]): 7.1 ± 0.5 log10
- log10 inactivation of 5 of 7 tested organisms [5]: > 6 log10
- log10 inactivation of all tested organisms [5]: > 4 log10
- log10 inactivation of extracellular PRV (extracellular PRV): > 6.3 log10

SMILES: Cc1cc(-c2ccc(N(C)C)cc2)cc(-c2ccc(N(C)C)cc2)[s+]1 [Compound 2, 2′,4′-bis(4-N,N-dimethylaminophenyl) 6′-methylthiopyrilium iodide]
- log10 inactivation (S. aureus; [7]): >6.8 log10
- hemolysis (red cells [3]): < 1%
- Hemolysis (%) (day 42) (red cells [3]; 160 μM): 0.45%
- log10 inactivation of extracellular VSV (extracellular VSV): > 7 log10
- Log10 VSV inact. (extracellular) (extracellular VSV; 10 μM): 1.3 log10
- Log10 VSV inact. (extracellular) (extracellular VSV; 20 μM): 2.2 log10
- Log10 VSV inact. (extracellular) (extracellular VSV; 30 μM): 2.7 log10
- Log10 VSV inact. (extracellular) (extracellular VSV; 60 μM): 4.8 log10
- Log10 VSV inact. (extracellular) (extracellular VSV; 90 μM): 5.7 log10
- Log10 VSV inact. (extracellular) (extracellular VSV; 160 μM): >7 log10
- log10 inactivation (S. marcescens): >6.9 log10
- log10 inactivation (Y. enterocolitica; [7]): >7.5 log10
- log10 inactivation (P. fluorescens): >7.7 log10
- log10 inactivation (S. epidermidis): >7.9 log10
- log10 inactivation (S. liquefaciens): >7.4 log10
- log10 inactivation (D. radiodurans): >7.9 log10
- log10 inactivation (E. coli; [7]): >7.9 log10
- bacteria remaining after inactivation (limit of detection) [5]: < 1 CFU/mL
- log10 inactivation of intracellular VSV (intracellular VSV): 4.0 log10
- log10 VSV inact. (intracellular) (intracellular VSV; 160 μM): >5 log10
